Results: ChEMBL document CHEMBL5465560, “Selectivity Literature for EUbOPEN Chemogenomic Library” (2024)
Values belong to the compound of their own block, whether it stands above or below them.

Legend:
[1] = biological target: T1, Serine/threonine-protein kinase D3 (Homo sapiens) (UniProt O94806); experiment: Selectivity interaction (KinomeScan (DiscoverX)) EUB0001079a PRKD3; conditions: at 1 µM
T1 sequence (whole entry): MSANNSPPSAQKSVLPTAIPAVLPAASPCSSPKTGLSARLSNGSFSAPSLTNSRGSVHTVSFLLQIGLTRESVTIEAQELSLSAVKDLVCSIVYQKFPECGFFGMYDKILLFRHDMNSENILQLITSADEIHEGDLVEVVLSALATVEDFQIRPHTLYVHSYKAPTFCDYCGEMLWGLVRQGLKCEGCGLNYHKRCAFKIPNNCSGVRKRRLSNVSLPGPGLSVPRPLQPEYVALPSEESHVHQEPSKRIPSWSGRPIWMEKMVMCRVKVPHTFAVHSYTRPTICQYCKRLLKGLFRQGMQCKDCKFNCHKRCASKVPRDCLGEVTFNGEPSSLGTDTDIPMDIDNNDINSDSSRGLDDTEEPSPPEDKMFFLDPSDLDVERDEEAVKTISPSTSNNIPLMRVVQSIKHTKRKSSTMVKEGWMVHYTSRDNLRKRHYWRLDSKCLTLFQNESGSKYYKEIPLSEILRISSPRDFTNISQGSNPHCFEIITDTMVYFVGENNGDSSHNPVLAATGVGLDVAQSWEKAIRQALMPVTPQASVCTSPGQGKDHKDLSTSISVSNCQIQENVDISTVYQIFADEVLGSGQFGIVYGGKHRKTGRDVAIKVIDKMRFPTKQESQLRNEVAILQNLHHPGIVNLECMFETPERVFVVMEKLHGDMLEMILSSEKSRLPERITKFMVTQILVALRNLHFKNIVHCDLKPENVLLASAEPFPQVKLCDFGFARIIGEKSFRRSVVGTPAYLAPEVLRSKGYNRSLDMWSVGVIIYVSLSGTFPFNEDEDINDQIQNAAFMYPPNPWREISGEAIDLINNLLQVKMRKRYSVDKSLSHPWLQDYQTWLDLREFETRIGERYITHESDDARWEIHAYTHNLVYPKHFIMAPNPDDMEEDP

[2] = test system: ALK tyrosine kinase receptor (Homo sapiens), Q9UM73 [C1156Y]; experiment: (§1) Selectivity interaction (KinomeScan (DiscoverX)) EUB0001079a ALK; conditions: at 1 µM
Sequence of ALK tyrosine kinase receptor (Homo sapiens), Q9UM73 [C1156Y] (Q9UM73 whole entry C1156Y, looked up): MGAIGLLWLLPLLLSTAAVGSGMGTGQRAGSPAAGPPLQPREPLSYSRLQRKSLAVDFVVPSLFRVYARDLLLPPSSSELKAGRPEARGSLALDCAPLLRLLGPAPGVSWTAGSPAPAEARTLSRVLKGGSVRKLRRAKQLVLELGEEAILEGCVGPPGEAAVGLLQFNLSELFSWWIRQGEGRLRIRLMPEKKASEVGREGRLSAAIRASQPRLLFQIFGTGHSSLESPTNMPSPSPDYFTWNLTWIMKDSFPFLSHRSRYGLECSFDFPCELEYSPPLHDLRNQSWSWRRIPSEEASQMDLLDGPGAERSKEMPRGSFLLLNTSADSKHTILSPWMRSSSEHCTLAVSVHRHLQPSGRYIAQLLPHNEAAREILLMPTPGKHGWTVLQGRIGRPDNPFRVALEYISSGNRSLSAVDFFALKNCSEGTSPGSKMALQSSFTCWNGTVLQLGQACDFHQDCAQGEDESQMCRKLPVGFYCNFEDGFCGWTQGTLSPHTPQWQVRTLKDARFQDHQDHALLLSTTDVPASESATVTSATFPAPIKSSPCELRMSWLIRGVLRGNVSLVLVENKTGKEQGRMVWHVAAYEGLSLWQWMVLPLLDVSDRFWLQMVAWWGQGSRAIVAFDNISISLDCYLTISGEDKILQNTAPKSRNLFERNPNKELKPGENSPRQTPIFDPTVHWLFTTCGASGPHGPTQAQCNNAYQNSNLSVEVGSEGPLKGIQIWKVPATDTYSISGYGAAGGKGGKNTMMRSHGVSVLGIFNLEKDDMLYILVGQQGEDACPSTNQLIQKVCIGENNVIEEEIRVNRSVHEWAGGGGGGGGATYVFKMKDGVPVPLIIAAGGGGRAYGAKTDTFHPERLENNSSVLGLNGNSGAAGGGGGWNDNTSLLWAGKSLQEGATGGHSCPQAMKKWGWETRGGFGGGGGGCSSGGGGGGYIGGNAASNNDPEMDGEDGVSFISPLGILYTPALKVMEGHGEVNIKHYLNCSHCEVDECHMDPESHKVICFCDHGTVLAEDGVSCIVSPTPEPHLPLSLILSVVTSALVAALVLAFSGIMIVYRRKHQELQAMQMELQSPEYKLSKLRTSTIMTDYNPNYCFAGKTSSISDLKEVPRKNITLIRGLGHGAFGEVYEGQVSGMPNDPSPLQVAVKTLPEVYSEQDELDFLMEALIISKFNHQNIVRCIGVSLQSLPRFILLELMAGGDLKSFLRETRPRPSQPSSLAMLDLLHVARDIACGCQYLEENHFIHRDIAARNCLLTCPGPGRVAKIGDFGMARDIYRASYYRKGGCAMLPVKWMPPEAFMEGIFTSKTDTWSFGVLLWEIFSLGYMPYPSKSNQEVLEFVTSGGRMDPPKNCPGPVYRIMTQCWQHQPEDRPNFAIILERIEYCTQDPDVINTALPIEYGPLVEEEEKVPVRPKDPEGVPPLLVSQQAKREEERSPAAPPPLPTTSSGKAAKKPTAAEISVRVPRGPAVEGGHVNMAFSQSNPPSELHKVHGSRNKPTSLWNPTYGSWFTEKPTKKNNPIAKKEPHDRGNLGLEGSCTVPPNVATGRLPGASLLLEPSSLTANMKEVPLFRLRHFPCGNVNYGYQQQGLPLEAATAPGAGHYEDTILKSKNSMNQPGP

[3] = test system: ALK tyrosine kinase receptor (Homo sapiens), Q9UM73 [L1196M]; experiment: as §1; conditions: at 1 µM
Sequence of ALK tyrosine kinase receptor (Homo sapiens), Q9UM73 [L1196M] (Q9UM73 whole entry L1196M, looked up): as the sequence (Q9UM73 whole entry C1156Y, looked up) above, with Y1156C, L1196M counted along it

[4] = biological target: ALK tyrosine kinase receptor (Homo sapiens, UniProt Q9UM73); experiment: as §1; conditions: at 1 µM
[5] = biological target: Tyrosine-protein kinase HCK (Homo sapiens) (UniProt P08631); experiment: Selectivity interaction (KinomeScan (DiscoverX)) EUB0000618a HCK; conditions: at 10 µM
Sequence of Tyrosine-protein kinase HCK (Homo sapiens) (P08631 2-526 limits assumed): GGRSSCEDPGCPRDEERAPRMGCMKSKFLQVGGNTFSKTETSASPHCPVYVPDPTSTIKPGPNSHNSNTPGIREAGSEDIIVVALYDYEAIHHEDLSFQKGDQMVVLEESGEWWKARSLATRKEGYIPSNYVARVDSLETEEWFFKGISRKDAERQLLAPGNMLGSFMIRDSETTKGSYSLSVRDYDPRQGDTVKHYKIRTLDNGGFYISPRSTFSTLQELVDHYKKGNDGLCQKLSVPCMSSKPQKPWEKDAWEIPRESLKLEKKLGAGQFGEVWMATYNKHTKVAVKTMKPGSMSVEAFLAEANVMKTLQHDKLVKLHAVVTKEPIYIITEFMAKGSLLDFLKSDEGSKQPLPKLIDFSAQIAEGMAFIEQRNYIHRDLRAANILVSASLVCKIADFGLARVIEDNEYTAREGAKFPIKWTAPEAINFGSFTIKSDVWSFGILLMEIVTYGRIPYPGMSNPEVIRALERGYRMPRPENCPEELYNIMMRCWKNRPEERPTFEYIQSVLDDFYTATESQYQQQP

[6] = biological target: T2, Cyclin-dependent kinase-like 5 (Homo sapiens) (UniProt O76039); experiment: Selectivity interaction (KinomeScan (DiscoverX)) EUB0000045b CDKL5
T2 sequence (whole entry): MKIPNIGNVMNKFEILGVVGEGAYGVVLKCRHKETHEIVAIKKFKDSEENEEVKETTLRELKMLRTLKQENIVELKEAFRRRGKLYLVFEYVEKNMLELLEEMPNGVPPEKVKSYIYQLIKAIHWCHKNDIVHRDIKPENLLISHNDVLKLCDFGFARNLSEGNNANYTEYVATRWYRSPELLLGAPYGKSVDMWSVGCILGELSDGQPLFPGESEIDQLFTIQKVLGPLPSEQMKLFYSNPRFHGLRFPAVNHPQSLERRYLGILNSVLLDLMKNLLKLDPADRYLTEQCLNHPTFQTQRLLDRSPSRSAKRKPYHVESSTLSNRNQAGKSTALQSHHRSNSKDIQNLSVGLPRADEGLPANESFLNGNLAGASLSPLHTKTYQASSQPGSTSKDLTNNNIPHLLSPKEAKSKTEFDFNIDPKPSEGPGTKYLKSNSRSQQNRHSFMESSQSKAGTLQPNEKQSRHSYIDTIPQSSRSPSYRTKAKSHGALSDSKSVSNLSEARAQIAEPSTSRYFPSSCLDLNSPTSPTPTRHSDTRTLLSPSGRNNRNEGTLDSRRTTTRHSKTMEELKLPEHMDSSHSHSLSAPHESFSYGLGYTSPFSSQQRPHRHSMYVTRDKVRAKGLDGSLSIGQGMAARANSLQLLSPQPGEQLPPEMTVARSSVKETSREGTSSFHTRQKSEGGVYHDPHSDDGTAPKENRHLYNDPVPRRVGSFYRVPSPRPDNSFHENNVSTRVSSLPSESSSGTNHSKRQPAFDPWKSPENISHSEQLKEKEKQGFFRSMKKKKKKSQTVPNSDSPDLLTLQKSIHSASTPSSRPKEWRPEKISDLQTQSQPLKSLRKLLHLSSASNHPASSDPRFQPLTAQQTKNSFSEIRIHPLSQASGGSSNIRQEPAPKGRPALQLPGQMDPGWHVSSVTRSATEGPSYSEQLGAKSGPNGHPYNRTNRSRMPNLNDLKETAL

[7] = biological target: Tyrosine-protein kinase Blk (Homo sapiens) (UniProt P51451); conditions: at 10 µM
[8] = biological target: T3, Histone-arginine methyltransferase CARM1 (Homo sapiens) (UniProt Q86X55); conditions: at 10 µM
T3 sequence (whole entry): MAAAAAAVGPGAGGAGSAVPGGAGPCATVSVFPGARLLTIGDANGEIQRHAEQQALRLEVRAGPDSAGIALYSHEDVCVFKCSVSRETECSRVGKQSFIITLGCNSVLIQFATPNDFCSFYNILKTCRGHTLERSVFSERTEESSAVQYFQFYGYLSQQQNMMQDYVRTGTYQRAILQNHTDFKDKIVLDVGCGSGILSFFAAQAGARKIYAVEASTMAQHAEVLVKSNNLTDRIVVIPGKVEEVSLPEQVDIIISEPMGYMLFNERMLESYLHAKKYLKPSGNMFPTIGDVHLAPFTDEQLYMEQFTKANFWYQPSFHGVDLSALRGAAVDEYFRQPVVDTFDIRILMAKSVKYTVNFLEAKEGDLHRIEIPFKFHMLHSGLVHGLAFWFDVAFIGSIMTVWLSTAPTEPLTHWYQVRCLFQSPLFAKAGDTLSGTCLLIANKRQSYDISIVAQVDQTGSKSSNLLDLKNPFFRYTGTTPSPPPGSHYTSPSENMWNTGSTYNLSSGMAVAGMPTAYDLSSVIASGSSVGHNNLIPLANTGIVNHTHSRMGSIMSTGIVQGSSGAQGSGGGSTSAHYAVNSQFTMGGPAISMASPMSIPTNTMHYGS

[9] = biological target: Dual specificity mitogen-activated protein kinase kinase 2 (Homo sapiens) (UniProt P36507); experiment: Selectivity interaction (Kinase panel (Invitrogen)) EUB0000639a MAP2K2; conditions: at 200 nM
Sequence of Dual specificity mitogen-activated protein kinase kinase 2 (Homo sapiens) (P36507 whole entry, the tested form may be a part): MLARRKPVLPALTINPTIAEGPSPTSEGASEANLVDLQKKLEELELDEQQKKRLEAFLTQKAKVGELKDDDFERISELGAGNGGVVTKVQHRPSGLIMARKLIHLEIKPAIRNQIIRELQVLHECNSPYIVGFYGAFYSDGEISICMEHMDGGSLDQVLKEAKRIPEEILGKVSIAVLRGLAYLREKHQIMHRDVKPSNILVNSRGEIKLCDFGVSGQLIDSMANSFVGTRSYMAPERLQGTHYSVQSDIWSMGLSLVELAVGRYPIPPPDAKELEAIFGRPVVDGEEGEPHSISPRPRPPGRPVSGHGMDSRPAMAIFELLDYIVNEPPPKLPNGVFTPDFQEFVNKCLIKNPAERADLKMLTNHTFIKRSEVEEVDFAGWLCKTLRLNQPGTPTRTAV

[10] = biological target: Coiled-coil domain-containing protein 6/Tyrosine-protein kinase receptor RET (Homo sapiens) (UniProt P07949+Q16204); experiment: Selectivity interaction (ProQinase) EUB0000171b RET; format: protein assay
Sequence of Coiled-coil domain-containing protein 6/Tyrosine-protein kinase receptor RET (Homo sapiens) (P07949 29-1114 limits assumed): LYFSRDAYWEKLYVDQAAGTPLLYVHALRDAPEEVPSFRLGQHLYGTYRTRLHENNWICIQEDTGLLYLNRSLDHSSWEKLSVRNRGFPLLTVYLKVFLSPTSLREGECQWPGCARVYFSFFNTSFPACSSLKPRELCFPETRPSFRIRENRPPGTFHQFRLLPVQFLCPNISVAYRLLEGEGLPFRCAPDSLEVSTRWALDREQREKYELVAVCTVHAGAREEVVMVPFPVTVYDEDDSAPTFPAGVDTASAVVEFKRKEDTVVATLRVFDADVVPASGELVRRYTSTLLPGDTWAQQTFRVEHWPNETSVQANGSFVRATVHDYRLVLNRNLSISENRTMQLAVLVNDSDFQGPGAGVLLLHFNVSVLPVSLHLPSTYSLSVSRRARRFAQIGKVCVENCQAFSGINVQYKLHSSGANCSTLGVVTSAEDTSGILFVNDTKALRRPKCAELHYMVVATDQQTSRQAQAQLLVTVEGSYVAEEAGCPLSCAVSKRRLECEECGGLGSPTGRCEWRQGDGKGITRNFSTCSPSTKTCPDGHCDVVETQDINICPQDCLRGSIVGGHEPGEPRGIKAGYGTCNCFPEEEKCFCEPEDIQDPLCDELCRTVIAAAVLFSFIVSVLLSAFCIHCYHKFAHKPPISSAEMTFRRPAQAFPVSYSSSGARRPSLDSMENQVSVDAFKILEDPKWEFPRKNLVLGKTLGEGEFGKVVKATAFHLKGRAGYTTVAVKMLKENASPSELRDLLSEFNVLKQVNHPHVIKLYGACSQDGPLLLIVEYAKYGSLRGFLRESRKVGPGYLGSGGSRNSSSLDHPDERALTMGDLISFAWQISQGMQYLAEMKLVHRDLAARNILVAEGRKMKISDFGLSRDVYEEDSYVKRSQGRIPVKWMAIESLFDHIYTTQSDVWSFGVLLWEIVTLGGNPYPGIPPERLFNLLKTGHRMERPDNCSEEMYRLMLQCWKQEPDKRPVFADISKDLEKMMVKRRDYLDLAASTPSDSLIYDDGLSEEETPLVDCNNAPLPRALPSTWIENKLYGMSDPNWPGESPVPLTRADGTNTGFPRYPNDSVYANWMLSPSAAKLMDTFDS
Sequence of Coiled-coil domain-containing protein 6/Tyrosine-protein kinase receptor RET (Homo sapiens) (Q16204 2-474 partner limits assumed): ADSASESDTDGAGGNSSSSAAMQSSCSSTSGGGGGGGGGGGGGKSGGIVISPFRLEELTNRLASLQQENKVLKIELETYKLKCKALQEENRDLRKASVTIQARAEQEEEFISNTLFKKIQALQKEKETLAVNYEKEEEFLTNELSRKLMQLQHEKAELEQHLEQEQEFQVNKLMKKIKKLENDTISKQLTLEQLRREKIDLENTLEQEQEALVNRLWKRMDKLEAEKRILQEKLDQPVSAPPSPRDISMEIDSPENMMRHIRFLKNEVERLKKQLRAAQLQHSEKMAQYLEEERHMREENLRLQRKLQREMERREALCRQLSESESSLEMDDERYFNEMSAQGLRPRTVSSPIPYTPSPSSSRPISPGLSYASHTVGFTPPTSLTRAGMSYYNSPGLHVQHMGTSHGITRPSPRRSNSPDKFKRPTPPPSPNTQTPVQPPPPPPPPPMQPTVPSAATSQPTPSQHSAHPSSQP

D(2) dopamine receptor = D(2) dopamine receptor (Homo sapiens, UniProt P14416); experiment: Selectivity interaction (Dopamine D2 receptor assay, human recombinant ) EUB0000877a DRD2
Sequence of D(2) dopamine receptor (P14416 whole entry): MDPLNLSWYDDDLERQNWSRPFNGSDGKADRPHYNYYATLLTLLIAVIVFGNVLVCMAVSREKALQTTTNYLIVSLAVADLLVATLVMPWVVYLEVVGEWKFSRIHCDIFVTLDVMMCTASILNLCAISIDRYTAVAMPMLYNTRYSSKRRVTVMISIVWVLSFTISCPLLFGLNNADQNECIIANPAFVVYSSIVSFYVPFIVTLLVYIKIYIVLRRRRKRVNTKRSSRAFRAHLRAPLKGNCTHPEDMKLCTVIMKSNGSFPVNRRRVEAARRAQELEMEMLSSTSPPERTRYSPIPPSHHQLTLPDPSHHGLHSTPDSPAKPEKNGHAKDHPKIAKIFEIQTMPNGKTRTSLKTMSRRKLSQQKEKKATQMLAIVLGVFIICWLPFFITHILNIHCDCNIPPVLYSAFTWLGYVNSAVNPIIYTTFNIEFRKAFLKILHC

Structure (SMILES): Nc1cnc(N2CCc3cc(S(=O)(=O)Nc4c(F)cc(Cl)cc4F)cc(N4CCCC4=O)c32)nc1 [TP-020n]
- % of control [1]: 88%
- % of control [2]: 100%
- % of control [3]: 81%
- % of control [4]: 100%

Structure (SMILES): O[C@H]1CC[C@H](Nc2ncc3nc(Nc4c(F)cc(F)cc4F)n([C@H]4CCOC4)c3n2)CC1
- % of control [5]: 100%

Structure (SMILES): C=CC(=O)Nc1cc(-n2c(=O)ccc3cnc4ccc(-c5ccc(NS(C)(=O)=O)cc5)cc4c32)ccc1C
- % of control ([6]; at 1 µM): 100%
- % of control ([6]; at 10 µM): 81%

Structure (SMILES): COCC(=O)NC/C=C/c1ccc2ncnc(Nc3ccc(Oc4ccc(C)nc4)c(C)c3)c2c1 [CP-724714]
- % of control [7]: 62%

- % activity [8]: 1%
Structure (SMILES): CNCCN1CCC(c2cc(CN(C)C(=O)c3cccc(Oc4ccccc4)c3)ccn2)CC1

- % of inhibition [9]: 13.2%
Structure (SMILES): CC[C@@H]1[C@H](F)C(=O)N[C@@H]1COc1nccc2cc(C(N)=O)c(OC)cc12 [ZIMLOVISERTIB]

- % of control ([10]; at 1 µM): 84%
- % of control ([10]; at 5 µM): 84%
Structure (SMILES): C=CC(=O)Nc1cccc(C(=O)Nc2ccc(Nc3cc(-c4[nH]c(SC)nc4C)ccn3)cc2)c1

- IC50 (D(2) dopamine receptor): > 30 µM
Structure (SMILES): CCC(=O)N1CC[C@H](Nc2ncnc3c2CN(c2cnc(OC)c(C(F)(F)F)c2)CC3)C1 [LENIOLISIB]
